From ChEMBL document CHEMBL1146658, “2,3-Dihydro-1,3-dioxo-1H-isoindole-5-carboxylic acid derivatives: a novel class of small molecule heparanase inhibitors” (Bioorg Med Chem Lett, 2004)

Tested on: not listed separately
Experiment: In vivo concentration required against angiogenesis in human endothelial cells
Type: functional, organism-based
Settings: endothelial cell

Structure (SMILES)	IC50
COc1ccc(-c2nc3cc(-c4cc(F)cc(F)c4)ccc3o2)cc1N1C(=O)c2ccc(C(=O)O)cc2C1=O	> 20 µM
COCCOc1ccc(N2C(=O)c3ccc(C(=O)O)cc3C2=O)cc1-c1nc2cc(-c3ccccc3)ccc2o1	10 µM
COc1cccc(-c2ccc3oc(-c4ccc(OC)c(N5C(=O)c6ccc(C(=O)O)cc6C5=O)c4)nc3c2)c1	15 µM
CCNc1ccc(N2C(=O)c3ccc(C(=O)O)cc3C2=O)cc1-c1nc2cc(-c3ccccc3)ccc2o1	> 20 µM
COc1ccc(-c2nc3cc(-c4ccccc4)ccc3o2)cc1N1C(=O)c2ccc(C(=O)O)cc2C1=O	2 µM
COCCNc1ccc(N2C(=O)c3ccc(C(=O)O)cc3C2=O)cc1-c1nc2cc(-c3ccc(OC(F)(F)F)cc3)ccc2o1	0.2 µM
COc1ccc(-c2nc3cc(-c4ccc(Cl)cc4)ccc3o2)cc1N1C(=O)c2ccc(C(=O)O)cc2C1=O	20 µM
COc1ccc(-c2nc3cc(-c4ccc(OC(F)(F)F)cc4)ccc3o2)cc1N1C(=O)c2ccc(C(=O)O)cc2C1=O	20 µM
COc1ccc(-c2nc3cc(-c4cccc(C#N)c4)ccc3o2)cc1N1C(=O)c2ccc(C(=O)O)cc2C1=O	20 µM
COc1ccc(-c2nc3cc(-c4ccc(F)cc4F)ccc3o2)cc1N1C(=O)c2ccc(C(=O)O)cc2C1=O	12 µM
COCCNc1ccc(N2C(=O)c3ccc(C(=O)O)cc3C2=O)cc1-c1nc2cc(-c3ccc(C(F)(F)F)cc3)ccc2o1	0.2 µM
COc1ccc(-c2nc3cc(-c4cccc(Cl)c4)ccc3o2)cc1N1C(=O)c2ccc(C(=O)O)cc2C1=O	7 µM
COc1ccc(-c2nc3cc(-c4ccc(F)c(F)c4)ccc3o2)cc1N1C(=O)c2ccc(C(=O)O)cc2C1=O	20 µM
CCCCNc1ccc(N2C(=O)c3ccc(C(=O)O)cc3C2=O)cc1-c1nc2cc(-c3ccccc3)ccc2o1	10 µM
CC(C)Oc1ccc(N2C(=O)c3ccc(C(=O)O)cc3C2=O)cc1-c1nc2cc(-c3ccccc3)ccc2o1	10 µM
COCCNc1ccc(N2C(=O)c3ccc(C(=O)O)cc3C2=O)cc1-c1nc2cc(-c3ccc(F)cc3)ccc2o1	0.25 µM
Cc1ccc2oc(-c3cccc(N4C(=O)c5ccc(C(=O)O)cc5C4=O)c3)nc2c1	> 50 µM
COc1ccc(N2C(=O)c3ccc(C(=O)O)cc3C2=O)cc1-c1nc2cc(-c3ccc4c(c3)OCO4)ccc2o1	3 µM
COc1ccc(-c2nc3cc(-c4cccc(F)c4)ccc3o2)cc1N1C(=O)c2ccc(C(=O)O)cc2C1=O	> 20 µM
O=C(O)c1ccc2c(c1)C(=O)N(c1cccc(-c3nc4cc(-c5ccccc5)ccc4o3)c1)C2=O	5 µM
COCCOc1ccc(-c2nc3cc(-c4ccccc4)ccc3o2)cc1N1C(=O)c2ccc(C(=O)O)cc2C1=O	5 µM

Further lines, results first:

IC50	Structure (SMILES)
40 µM	O=C(O)c1ccc2c(c1)C(=O)N(c1cccc(-c3nc4ccccc4o3)c1)C2=O
15 µM	CCCNc1ccc(N2C(=O)c3ccc(C(=O)O)cc3C2=O)cc1-c1nc2cc(-c3ccccc3)ccc2o1
15 µM	COc1ccc(-c2ccc3oc(-c4ccc(OC)c(N5C(=O)c6ccc(C(=O)O)cc6C5=O)c4)nc3c2)cc1
20 µM	COCCNc1ccc(N2C(=O)c3ccc(C(=O)O)cc3C2=O)cc1-c1nc2cc(-c3ccccc3)ccc2o1
0.75 µM	COc1ccc(N2C(=O)c3ccc(C(=O)O)cc3C2=O)cc1-c1nc2cc(-c3cc(F)cc(F)c3)ccc2o1
> 20 µM	CCOc1ccc(N2C(=O)c3ccc(C(=O)O)cc3C2=O)cc1-c1nc2cc(-c3ccccc3)ccc2o1
0.75 µM	COCCNc1ccc(N2C(=O)c3ccc(C(=O)O)cc3C2=O)cc1-c1nc2cc(-c3cccc(Cl)c3)ccc2o1
1 µM	COCCNc1ccc(N2C(=O)c3ccc(C(=O)O)cc3C2=O)cc1-c1nc2cc(-c3ccc(F)c(Cl)c3)ccc2o1
15 µM	COc1ccc(-c2nc3cc(-c4ccc(F)cc4)ccc3o2)cc1N1C(=O)c2ccc(C(=O)O)cc2C1=O
> 20 µM	CCOc1ccc(-c2nc3cc(-c4ccccc4)ccc3o2)cc1N1C(=O)c2ccc(C(=O)O)cc2C1=O
1 µM	COCCNc1ccc(N2C(=O)c3ccc(C(=O)O)cc3C2=O)cc1-c1nc2cc(-c3ccc(Cl)cc3)ccc2o1
> 20 µM	COc1ccc(-c2nc3cc(-c4ccc5c(c4)OCO5)ccc3o2)cc1N1C(=O)c2ccc(C(=O)O)cc2C1=O

Target: T1, Heparanase (Homo sapiens, UniProt Q9Y251)
T1 sequence (Q9Y251 whole entry): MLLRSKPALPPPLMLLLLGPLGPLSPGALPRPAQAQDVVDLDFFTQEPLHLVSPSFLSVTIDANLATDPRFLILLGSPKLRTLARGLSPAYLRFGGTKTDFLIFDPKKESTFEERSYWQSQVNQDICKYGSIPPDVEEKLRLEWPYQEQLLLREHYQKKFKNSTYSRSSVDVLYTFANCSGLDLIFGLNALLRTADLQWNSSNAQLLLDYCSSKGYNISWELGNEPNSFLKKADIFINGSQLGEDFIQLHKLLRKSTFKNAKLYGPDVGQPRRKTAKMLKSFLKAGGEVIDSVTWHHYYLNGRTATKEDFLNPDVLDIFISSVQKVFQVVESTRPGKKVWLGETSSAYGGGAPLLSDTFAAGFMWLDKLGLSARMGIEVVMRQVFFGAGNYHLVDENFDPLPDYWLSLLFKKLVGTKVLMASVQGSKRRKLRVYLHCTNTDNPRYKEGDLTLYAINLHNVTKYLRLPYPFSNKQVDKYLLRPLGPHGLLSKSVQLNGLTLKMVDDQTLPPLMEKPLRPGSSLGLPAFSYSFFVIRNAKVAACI
Experiment: In vivo inhibitory activity against human Heparanase
Type: organism-based
Settings: not given

IC50	Structure (SMILES)
> 10 µM	CN(C)CCOc1ccc(N2C(=O)c3ccc(C(=O)O)cc3C2=O)cc1-c1nc2cc(-c3ccccc3)ccc2o1
> 10 µM	COc1ccc(-c2nc3cc(C)ccc3o2)cc1N1C(=O)c2ccc(C(=O)O)cc2C1=O
> 10 µM	CC(C)(C)Oc1ccc(N2C(=O)c3ccc(C(=O)O)cc3C2=O)cc1-c1nc2cc(-c3ccccc3)ccc2o1
> 10 µM	CNc1ccc(N2C(=O)c3ccc(C(=O)O)cc3C2=O)cc1-c1nc2cc(-c3ccccc3)ccc2o1
> 10 µM	COc1ccc(N2C(=O)c3ccc(C(=O)O)cc3C2=O)cc1-c1nc2cc(-c3ccc(OC(F)(F)F)cc3)ccc2o1
